Legend:
[1] = Antiplatelet activity in human platelet rich plasma assessed as inhibition of ADP-induced platelet aggregation preincubated for 5 mins followed by ADP addition and measured after 5 mins; format: functional, cell-based
P2Y purinoceptor 12 [2] = biological target: T1, P2Y purinoceptor 12 (Homo sapiens, UniProt Q9H244); experiment: Displacement of [3H]2MeSADP from human P2Y12 expressed in U2OS cell membranes incubated for 60 mins by scintillation counting method; parameters: species or system Membrane
P2Y purinoceptor 12 [3] = biological target: T1, P2Y purinoceptor 12; experiment: Binding affinity to human P2Y12 expressed in astrocytoma cells; format: cell-based, Astrocyte
[4] = Antiplatelet activity in human platelet rich plasma assessed as inhibition of ADP-induced platelet aggregation preincubated for 2 mins followed by ADP addition and measured after 6 mins by Born method; format: functional, cell-based
Blood [5] = experiment: Ex vivo inhibition of platelet aggregation in Sprague-Dawley rat blood at 3 mg/kg, iv measured after 2 hrs; format: functional; parameters: scale not given: the % may be the effect or the level left
Blood [6] = experiment: Ex vivo inhibition of platelet aggregation in Sprague-Dawley rat blood at 10 mg/kg, po measured after 2 hrs; format: functional; parameters: scale not given: the % may be the effect or the level left
Blood [7] = experiment: Ex vivo inhibition of platelet aggregation in Sprague-Dawley rat blood at 1 mg/kg, iv measured after 2 hrs; format: functional
[8] = Antiplatelet activity in rat platelet rich plasma assessed as inhibition of ADP-induced platelet aggregation preincubated for 1 min followed by ADP addition and measured after 6 mins by Born method; format: functional, cell-based
Blood [9] = experiment: Ex vivo inhibition of platelet aggregation in Sprague-Dawley rat blood at 3 mg/kg, po measured after 2 hrs; format: functional
[10] = Antiplatelet activity in human platelet rich plasma assessed as inhibition of ADP-induced platelet aggregation preincubated for 1 min followed by ADP addition and measured after 6 to 8 mins by Born method; format: functional, cell-based
[11] = Antiplatelet activity in human platelet rich plasma assessed as inhibition of ADP-induced platelet aggregation preincubated for 2 mins followed by ADP addition for 5 mins; format: functional, cell-based
Blood [12] = experiment: Ex vivo inhibition of platelet aggregation in Sprague-Dawley rat blood at 3 mg/kg, iv measured after 30 mins; format: functional; details: 0.5 h
Rattus norvegicus = species on record: Rattus norvegicus; experiment: Anti-platelet aggregation activity in Sprague-Dawley rat assessed as reduction in bleeding time; format: functional
P2Y purinoceptor 12 [13] = biological target: T1, P2Y purinoceptor 12; experiment: Displacement of tritium-labeled 2MeSADP from human P2Y12 expressed in CHO cells measured after 2 hrs by scintillation counting method; format: cell-based
P2Y purinoceptor 12 [14] = biological target: T1, P2Y purinoceptor 12; experiment: Displacement of [3H]2MeSADP from P2Y12 (unknown origin)
[15] = Antiplatelet activity in human platelet rich plasma assessed as inhibition of ADP-induced platelet aggregation preincubated for 5 mins followed by ADP addition and measured after 20 mins by microplate reader analysis; format: functional, cell-based
[16] = Antiplatelet activity in human platelet rich plasma assessed as inhibition of CaCl2/fibrinogen-induced platelet aggregation preincubated for 5 mins followed by CaCl2/fibrinogen addition by microplate reader analysis; format: functional, cell-based
P2Y purinoceptor 12 [17] = biological target: T1, P2Y purinoceptor 12; experiment: Inhibition of 2-MeS-ADP induced P2Y12 (unknown origin) signalling expressed in CHO cells membrane incubated for 45 mins by 35S-GTPgammaS assay; format: functional, cell membranes
P2Y purinoceptor 12 [18] = biological target: T1, P2Y purinoceptor 12; experiment: Displacement of 2-MeS[3H]-ADP from P2Y12 (unknown origin) expressed in HEK293 cells preincubated for 5 mins followed by 2-MeS[3H]-ADP addition and measured after 30 mins by Topcount beta counter analysis; format: cell-based
[19] = Anti-platelet aggregation activity in rat platelets assessed as inhibition of ADP-induced aggregation pre-treated for 5 mins followed by ADP addition and measured after 5 mins; format: functional, cell-based
[20] = Anti-platelet aggregation activity in rat platelet rich plasma assessed as inhibition of ADP-induced aggregation at 250 ug/ml pre-treated for 5 mins followed by ADP addition by hemocytometer analysis; format: functional; parameters: scale not given: the % may be the effect or the level left; details: dose 250 µg/ml
P2Y purinoceptor 12 [21] = biological target: T1, P2Y purinoceptor 12; experiment: Binding affinity to P2Y12 (unknown origin)
[22] = Lipophilicity, logP of compound; format: physicochemical; details: octanol/water
[23] = Antiplatelet activity in rabbit platelet rich plasma assessed as inhibition of ADP-induced platelet aggregation at 150.8 uM preincubated for 3 mins followed by ADP addition and measured after 5 mins relative to control; format: functional, Oryctolagus cuniculus; parameters: scale not given: the % may be the effect or the level left; details: time 8 min
[24] = Anti-platelet aggregation activity in human platelets assessed as inhibition of epinephrine induced aggregation; format: functional, cell-based
P2Y purinoceptor 1 = P2Y purinoceptor 1 (Homo sapiens, UniProt P47900); experiment: Displacement of [3H]2MeSADP from human P2Y1 expressed in U2OS cell membranes incubated for 60 mins by scintillation counting method; parameters: species or system Membrane
P2Y purinoceptor 1, sequence (P47900 whole entry): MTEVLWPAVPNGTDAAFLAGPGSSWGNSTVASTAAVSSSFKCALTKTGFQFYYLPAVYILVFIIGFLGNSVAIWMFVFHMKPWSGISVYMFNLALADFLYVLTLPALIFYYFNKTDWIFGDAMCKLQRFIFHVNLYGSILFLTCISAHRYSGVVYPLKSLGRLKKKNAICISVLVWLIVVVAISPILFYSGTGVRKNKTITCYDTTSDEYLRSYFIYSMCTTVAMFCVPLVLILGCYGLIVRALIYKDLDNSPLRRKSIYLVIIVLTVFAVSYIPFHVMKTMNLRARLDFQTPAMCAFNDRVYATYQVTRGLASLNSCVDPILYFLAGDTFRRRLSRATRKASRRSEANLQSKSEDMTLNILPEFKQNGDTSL

T1 sequence (Q9H244 whole entry): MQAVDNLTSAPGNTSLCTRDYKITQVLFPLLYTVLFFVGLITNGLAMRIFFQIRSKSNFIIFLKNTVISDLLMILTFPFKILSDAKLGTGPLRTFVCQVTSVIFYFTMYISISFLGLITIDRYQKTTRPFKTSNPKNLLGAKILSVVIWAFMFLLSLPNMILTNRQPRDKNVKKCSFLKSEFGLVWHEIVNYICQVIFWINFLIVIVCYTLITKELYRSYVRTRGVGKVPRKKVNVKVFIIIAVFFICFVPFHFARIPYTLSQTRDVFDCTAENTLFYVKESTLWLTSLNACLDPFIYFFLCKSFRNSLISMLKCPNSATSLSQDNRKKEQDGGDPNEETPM

COc1cc(/C=C/c2cc(O)cc(O)c2)ccc1O
IC50 [1]: 1.85 µM

O=C(/C=C/c1ccc(O)c2c1[C@H](C(=O)O[C@H](Cc1ccc(O)c(O)c1)C(=O)O)[C@@H](c1ccc(O)c(O)c1)O2)O[C@H](Cc1ccc(O)c(O)c1)C(=O)O
Ki (P2Y purinoceptor 12 [2]): 36.4 µM

Cc1cc(C)cc(Nc2cc(S(=O)(=O)O)c(N)c3c2C(=O)c2ccccc2C3=O)c1
Ki (P2Y purinoceptor 12 [3]): 0.063 µM

Cc1c(N)cccc1Nc1cc(S(=O)(=O)O)c(N)c2c1C(=O)c1ccccc1C2=O
Ki (P2Y purinoceptor 12 [3]): 0.025 µM

O=C(O)CC[C@H](NC(=O)c1cc(OCC(=O)N2CCC[C@H]2C(=O)NC2CCC2)n(-c2ccccc2)n1)C(=O)N1CCN(C(=O)OC2CCC2)CC1
IC50 [4]: ≤ 0.011 µM

CCOC(=O)N1CCN(C(=O)[C@H](CCC(=O)O)NC(=O)c2cc(OCC(=O)N3CCC[C@H]3C(=O)NC3CC3)n(-c3ccccc3)n2)CC1
IC50 [4]: ≤ 0.011 µM

CCOC(=O)N1CCN(C(=O)[C@H](CCC(=O)O)NC(=O)c2cc(OCC(=O)N3CCC[C@H]3C(=O)NC3CCCC3)n(-c3ccccc3)n2)CC1
IC50 [4]: ≤ 0.011 µM

CCCC(=O)c1cnn(-c2ccc(NC(=O)c3cn(CC(=O)N4CCN(C)CC4)c4ccc(Cl)cc34)nn2)c1C
Activity (Blood [5]): 79% | Activity (Blood [6]): 73.5%

CCCC(=O)c1cnn(-c2cnc(NC(=O)c3cn(CC(=O)N4CCN(C)CC4)c4ccc(Cl)cc34)cn2)c1C
inhibition in vivo at 1 mg/kg (Blood [7]): 86.3% | Activity (Blood [6]): 76%

CCCC(=O)c1cnn(C2CCN(NC(=O)c3cn(CC(=O)N4CCN(C)CC4)c4ccc(Cl)cc34)CC2)c1C
IC50 [8]: 0.043 µM | inhibition in vivo at 1 mg/kg (Blood [7]): 88% | inhibition in vivo at 3 mg/kg (Blood [9]): 72% | IC50 [10]: 0.025 µM

Cc1cc(Nc2ccc(Nc3ccccc3)c(S(=O)(=O)O)c2)c2c(c1N)C(=O)c1ccccc1C2=O
Ki (P2Y purinoceptor 12 [3]): 0.051 µM

CCCCOC(=O)N1CCN(C(=O)[C@H](CP(=O)(OCOC(=O)OC(C)C)OCOC(=O)OC(C)C)NC(=O)c2cc(N3CC[C@H](OC)C3)nc(-c3ccccc3)n2)CC1
IC50 [11]: 0.008 µM

CCCC(=O)c1cnn(C2CCC(NC(=O)c3cn(CC(=O)N4CCN(C)CC4)c4ccc(Cl)cc34)CC2)c1C (stereo unspecified)
IC50 [8]: 0.091 µM | inhibition in vivo at 3 mg/kg (Blood [9]): 42.8% | inhibition in vivo at 3 mg/kg (Blood [12]): 79% | IC50 [10]: 0.27 µM

COC(=O)C(c1ccccc1Cl)N1CCc2sc(OC(=O)C(N)CC(C)C)cc2C1.Cl (stereo unspecified)
ED50 (Rattus norvegicus): 2.16 mg/kg

CCCCOC(=O)N1CCN(C(=O)[C@H](CCC(=O)O)NC(=O)c2nc(-c3ccccc3)sc2N2CC[C@H](OC)C2)CC1
IC50 (P2Y purinoceptor 12 [13]): 0.001 µM

C[C@H]([C@@H](O)[C@H](O)[C@@H](C)C(C)(C)C)[C@H]1CC[C@H]2[C@@H]3CC[C@H]4C[C@@H](OS(=O)(=O)O)[C@H](OS(=O)(=O)O)C[C@]4(C)[C@H]3CC[C@]12C
IC50 (P2Y purinoceptor 12 [14]): 2.2 µM

CCCCOC(=O)N1CCN(C(=O)[C@H](CP(=O)(O)O)NC(=O)c2csc(-c3ccccc3)n2)CC1
IC50 (P2Y purinoceptor 12 [13]): 0.001 µM

CCOC(=O)N1CCN(C(=O)[C@H](CCC(=O)O)NC(=O)c2cc(OCC(=O)N[C@@H](C)C(=O)O)n(-c3ccccc3)n2)CC1
IC50 [15]: 1.48 µM

CCOC(=O)N1CCN(C(=O)[C@H](CCC(=O)O)NC(=O)c2cc(OCC(=O)N3CCC[C@H]3C(=O)NCC(F)(F)F)n(-c3ccccc3)n2)CC1
IC50 [4]: ≤ 0.011 µM

C[C@H](CC[C@@H](C)C(C)(C)C)[C@H]1CC[C@H]2[C@@H]3C[C@H](OS(=O)(=O)O)[C@H]4C[C@@H](OS(=O)(=O)O)[C@H](OS(=O)(=O)O)C[C@]4(C)[C@H]3CC[C@]12C
IC50 (P2Y purinoceptor 12 [14]): 0.48 µM

CCCSc1nc(N[C@@H]2C[C@H]2c2ccccc2)c2nnn([C@@H]3C=C[C@H](OCC(=O)O)[C@@H](O)[C@H]3O)c2n1
IC50 [16]: 2.91 µM

CCCC(=O)c1cc(C#N)c(N(C(=O)C2CCNCC2)S(=O)(=O)Cc2cccc(F)c2)nc1C
IC50 (P2Y purinoceptor 12 [17]): 0.1 µM

CCNC(=O)[C@@H]1CCCN1C(=O)COc1cc(C(=O)N[C@@H](CCC(=O)O)C(=O)N2CCN(C(=O)OCC)CC2)nc2cccc(F)c12
IC50 [15]: 0.03 µM

CCCC(=O)c1cc(C#N)c(N(C(=O)C2CCNCC2)S(=O)(=O)CCc2ccccc2)nc1C
IC50 (P2Y purinoceptor 12 [17]): 0.26 µM

CCCCOC(=O)N1CCN(C(=O)[C@H](CCP(=O)(O)O)NC(=O)c2cc(N3CC[C@H](OC)C3)nc(-c3ccccc3)n2)CC1
IC50 [11]: 0.001 µM

CCOC(=O)N1CCN(C(=O)[C@H](CCC(=O)O)NC(=O)c2cc(OCC(=O)N3CCC[C@H]3C(=O)NC3CCC3)n(-c3cccc(F)c3)n2)CC1
IC50 [4]: ≤ 0.011 µM

CCCCOC(=O)N1CCN(C(=O)[C@H](CP(=O)(O)O)NC(=O)c2nc(-c3ccccc3)sc2N2CCN(C)CC2)CC1
IC50 (P2Y purinoceptor 12 [13]): 0.001 µM

CCCCOC(=O)N1CCN(C(=O)[C@H](CCC(=O)O)NC(=O)c2cc(OCC(=O)N3CCC[C@H]3C(=O)N(C)C3CC3)n(-c3ccccc3)n2)CC1
IC50 [4]: ≤ 0.011 µM

CCOC(=O)N1CCN(C(=O)[C@H](Cc2ccc(P(=O)(O)O)cc2)NC(=O)c2csc(-c3ccccc3)n2)CC1
IC50 (P2Y purinoceptor 12 [13]): 0.001 µM

CCCSc1nc(N[C@@H]2C[C@H]2c2ccccc2)c2nnn([C@@H]3CC[C@H](O)[C@@H](O)[C@H]3O)c2n1
IC50 (P2Y purinoceptor 12 [18]): 1.35 µM

CC(C)CCCC(C)[C@H]1CC[C@]2(C)[C@@H]1[C@H](O)C[C@@H]1[C@@]3(C)CC[C@H](O)C(C)(C)[C@@H]3[C@@H](O[C@@H]3O[C@H](CO)[C@@H](O)[C@H](O)[C@H]3O)C[C@]12C (stereo partly specified)
IC50 [19]: 30.9 µM

CCC(C)C(N)C(=O)Oc1cc2c(s1)CCN(C(C(=O)C1CC1)c1ccccc1F)C2.Cl (stereo unspecified)
ED50 (Rattus norvegicus): 0.74 mg/kg

CCCCOC(=O)N1CCN(C(=O)[C@H](CP(=O)(O)O)NC(=O)c2nc(-c3ccccc3)sc2N(C)CCCC)CC1
IC50 (P2Y purinoceptor 12 [13]): 0.001 µM

CCOC(=O)N1CCN(C(=O)[C@@H](CCC(=O)O)NC(=O)c2cc(Cl)cc(-c3ccccc3)n2)CC1
IC50 (P2Y purinoceptor 12 [13]): 0.034 µM

CCOC(=O)N1CCN(C(=O)[C@H](CCC(=O)O)NC(=O)c2cc(O[C@H](C)C(=O)N3CCC[C@H]3C(=O)NC3CCCC3)c3ccc(C)cc3n2)CC1
IC50 [15]: 0.03 µM

CC(=O)CCC1=C(C)C[C@@H](O[C@@H]2O[C@H](CO[C@@H]3OC[C@@H](O)[C@H](O)[C@H]3O)[C@@H](O)[C@H](O)[C@H]2O)CC1(C)C
Activity [20]: 89.59%

Cc1cnc(-c2cnc(N3CCN(C(=O)NS(=O)(=O)c4ccccc4)CC3)c(Cl)c2)o1
IC50 (P2Y purinoceptor 12 [21]): 0.32 µM

COC(=O)[C@H](c1ccccc1Cl)N1CCc2sccc2C1 [CLOPIDOGREL]
logP [22]: 3.74

COc1cc2c(cc1OC)-c1c(C)c3ccc(OC)c(OC)c3c[n+]1CC2 [DEHYDROCORYDALINE]
Activity [23]: 73.48%

C[C@@H]1CC[C@]2(C(=O)O)CC[C@]3(C)C(=CC[C@@H]4[C@@]5(C)CC[C@H](O)C(C)(C)[C@@H]5CC[C@]43C)[C@@H]2[C@]1(C)O [POMOLIC ACID]
IC50 [24]: 0.02 µM

CC(=O)Oc1cc2c(s1)CCN(C(C(=O)C1CC1)c1ccccc1F)C2 (stereo unspecified) [PRASUGREL]
logP [22]: 3.42

O=C(/C=C/c1ccc(O)c(O)c1/C=C/c1ccc(O)c(O)c1)O[C@H](Cc1ccc(O)c(O)c1)C(=O)O [SALVIANOLIC ACID A]
Ki (P2Y purinoceptor 1): 20.3 µM

Clc1ccccc1CN1CCc2sccc2C1 [TICLOPIDINE]
logP [22]: 4.05

Reference: ChEMBL document CHEMBL5126507, “P2Y12 antagonists: Approved drugs, potential naturally isolated and synthesised compounds, and related in-silico studies” (Eur J Med Chem, 2022)
